System: E. coli strain W3110
Experiment: Synergy assays: Biolog chemical sensitivity panels with Group IB metal, coefficient of drug interaction (CDI) from relative growth
Type: cell-based
Settings: for CDI (coefficient of drug interaction), copper mixed with biocide: Copper (mM) section; for CDI (coefficient of drug interaction), gold + biocide: Gold (μM)

CCCCCCCCCCCC[N+](C)(C)CCCS(=O)(=O)O [lauryl sulfobetaine]
CDI (coefficient of drug interaction), copper mixed with biocide (1st of 3 copper concentrations (value not shown), 1st of four biocide concentrations): 0.96
CDI (coefficient of drug interaction), copper mixed with biocide (1st of 3 copper concentrations (value not shown), 2nd of four biocide concentrations): 1.18
CDI (coefficient of drug interaction), copper mixed with biocide (1st of 3 copper concentrations (value not shown), 3rd of four biocide concentrations): 0.80
CDI (coefficient of drug interaction), copper mixed with biocide (1st of 3 copper concentrations (value not shown), 4th of four biocide concentrations): 0.21
CDI (coefficient of drug interaction), copper mixed with biocide (2nd of 3 copper concentrations (value not shown), 1st of four biocide concentrations): 0.60
CDI (coefficient of drug interaction), copper mixed with biocide (2nd of 3 copper concentrations (value not shown), 2nd of four biocide concentrations): 1.39
CDI (coefficient of drug interaction), copper mixed with biocide (2nd of 3 copper concentrations (value not shown), 3rd of four biocide concentrations): 0.72
CDI (coefficient of drug interaction), copper mixed with biocide (2nd of 3 copper concentrations (value not shown), 4th of four biocide concentrations): 0.48
CDI (coefficient of drug interaction), copper mixed with biocide (3rd of 3 copper concentrations (value not shown), 1st of four biocide concentrations): 0.48
CDI (coefficient of drug interaction), copper mixed with biocide (3rd of 3 copper concentrations (value not shown), 2nd of four biocide concentrations): 0.80
CDI (coefficient of drug interaction), copper mixed with biocide (3rd of 3 copper concentrations (value not shown), 3rd of four biocide concentrations): 0.34
CDI (coefficient of drug interaction), copper mixed with biocide (3rd of 3 copper concentrations (value not shown), 4th of four biocide concentrations): 0.07
CDI (coefficient of drug interaction) (Gold section of Table 5, first of three gold concentrations (μM, value not given), biocide concentration 1 of 4): 0.86
CDI (coefficient of drug interaction) (Gold section of Table 5, first of three gold concentrations (μM, value not given), biocide concentration 2 of 4): 1.26
CDI (coefficient of drug interaction) (Gold section of Table 5, first of three gold concentrations (μM, value not given), biocide concentration 3 of 4): 0.86
CDI (coefficient of drug interaction) (Gold section of Table 5, first of three gold concentrations (μM, value not given), biocide concentration 4 of 4): 0.99
CDI (coefficient of drug interaction) (Gold section of Table 5, second of three gold concentrations (μM, value not given), biocide concentration 1 of 4): 0.96
CDI (coefficient of drug interaction) (Gold section of Table 5, second of three gold concentrations (μM, value not given), biocide concentration 2 of 4): 0.87
CDI (coefficient of drug interaction) (Gold section of Table 5, second of three gold concentrations (μM, value not given), biocide concentration 3 of 4): 1.00
CDI (coefficient of drug interaction) (Gold section of Table 5, second of three gold concentrations (μM, value not given), biocide concentration 4 of 4): 1.09
CDI (coefficient of drug interaction) (Gold section of Table 5, third of three gold concentrations (μM, value not given), biocide concentration 1 of 4): 1.13
CDI (coefficient of drug interaction) (Gold section of Table 5, third of three gold concentrations (μM, value not given), biocide concentration 2 of 4): 1.04
CDI (coefficient of drug interaction) (Gold section of Table 5, third of three gold concentrations (μM, value not given), biocide concentration 3 of 4): 0.96
CDI (coefficient of drug interaction), silver + biocide (Silver 0.5 μM, 1st of four biocide concentrations, E. coli): 0.83
CDI (coefficient of drug interaction), silver + biocide (Silver 0.5 μM, 2nd of four biocide concentrations, E. coli): 0.56
CDI (coefficient of drug interaction), silver + biocide (Silver 0.5 μM, 3rd of four biocide concentrations, E. coli): Tox
CDI (coefficient of drug interaction), silver + biocide (Silver 0.5 μM, 4th of four biocide concentrations, E. coli): Tox
CDI (coefficient of drug interaction), silver + biocide (Silver 1.0 μM, 1st of four biocide concentrations, E. coli): 0.91
CDI (coefficient of drug interaction), silver + biocide (Silver 1.0 μM, 2nd of four biocide concentrations, E. coli): 0.79
CDI (coefficient of drug interaction), silver + biocide (Silver 1.0 μM, 3rd of four biocide concentrations, E. coli): Tox
CDI (coefficient of drug interaction), silver + biocide (Silver 1.0 μM, 4th of four biocide concentrations, E. coli): Tox
CDI (coefficient of drug interaction), silver + biocide (Silver 5.0 μM, 1st of four biocide concentrations, E. coli): 1.42
CDI (coefficient of drug interaction), silver + biocide (Silver 5.0 μM, 2nd of four biocide concentrations, E. coli): 1.41
CDI (coefficient of drug interaction), silver + biocide (Silver 5.0 μM, 3rd of four biocide concentrations, E. coli): Tox
CDI (coefficient of drug interaction), silver + biocide (Silver 5.0 μM, 4th of four biocide concentrations, E. coli): Tox

O=C(O)c1cc(O)c(O)c(O)c1 [gallic acid]
CDI (coefficient of drug interaction) (Copper (mM), 1st of 3 copper concentrations (head line not shown), biocide concentration 4 of 4, E. coli): Tox
CDI (coefficient of drug interaction) (Copper (mM), 2nd of 3 copper concentrations (head line not shown), biocide concentration 4 of 4, E. coli): Tox
CDI (coefficient of drug interaction) (Copper (mM), 3rd of 3 copper concentrations (head line not shown), biocide concentration 4 of 4, E. coli): Tox
CDI (coefficient of drug interaction), gold + biocide (first of 3 gold concentrations, biocide concentration 4 of 4): Tox
CDI (coefficient of drug interaction), gold + biocide (second of 3 gold concentrations, biocide concentration 4 of 4): Tox
CDI (coefficient of drug interaction), gold + biocide (third of 3 gold concentrations, biocide concentration 4 of 4): Tox
CDI (Silver 0.5 μM, biocide concentration 4 of 4): Tox
CDI (Silver 1.0 μM, biocide concentration 4 of 4): Tox
CDI (Silver 5.0 μM, biocide concentration 4 of 4): Tox

From patent US11382328B2, “Rapid drug discovery methods for pathogen inactivation” (priority 2019, dated 2022)
